The values below come from ChEMBL document CHEMBL5653631, “A Potent and Selective ULK1 Inhibitor Suppresses Autophagy and Sensitizes Cancer Cells to Nutrient Stress” (iScience, 2018).

In general, inhibition refers to the change of the read-out against control, counted positive when it falls. As usually defined, the IC50 is the midpoint of a concentration-inhibition curve.

Assay [1] addresses G protein-coupled receptor kinase 6 (Homo sapiens) (UniProt P43250). Description: Inhibition of human recombinant GPRK6 at 15 nM in presence of ATP by radiometric assay relative to control.
In assay [2] the target is Casein kinase I isoform gamma-3 (Homo sapiens) (UniProt Q9Y6M4). The assay is described as follows: Inhibition of human recombinant CK1g3 at 15 nM related to control ULK1.
Casein kinase I isoform gamma-3 (Homo sapiens), sequence (Q9Y6M4 whole entry, looked up, canonical isoform): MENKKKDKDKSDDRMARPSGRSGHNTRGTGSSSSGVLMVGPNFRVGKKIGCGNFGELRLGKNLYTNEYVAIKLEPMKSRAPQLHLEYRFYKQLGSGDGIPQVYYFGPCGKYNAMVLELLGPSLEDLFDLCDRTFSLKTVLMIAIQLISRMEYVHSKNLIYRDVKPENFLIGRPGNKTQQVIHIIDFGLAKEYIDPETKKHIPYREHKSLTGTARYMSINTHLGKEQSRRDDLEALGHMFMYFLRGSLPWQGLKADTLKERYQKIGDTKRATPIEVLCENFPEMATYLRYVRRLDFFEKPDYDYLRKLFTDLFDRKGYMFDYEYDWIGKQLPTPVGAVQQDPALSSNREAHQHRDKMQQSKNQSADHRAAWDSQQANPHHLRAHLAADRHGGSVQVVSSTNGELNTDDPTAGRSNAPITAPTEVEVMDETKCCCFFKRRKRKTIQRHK
In assay [3] the target is Calcium/calmodulin-dependent protein kinase kinase 2 (Homo sapiens) (UniProt Q96RR4). The assay is described as follows: Inhibition of human recombinant CaMKK2 at 15 nM related to control ULK1.
Calcium/calmodulin-dependent protein kinase kinase 2 (Homo sapiens), sequence (Q96RR4 2-588 limits assumed): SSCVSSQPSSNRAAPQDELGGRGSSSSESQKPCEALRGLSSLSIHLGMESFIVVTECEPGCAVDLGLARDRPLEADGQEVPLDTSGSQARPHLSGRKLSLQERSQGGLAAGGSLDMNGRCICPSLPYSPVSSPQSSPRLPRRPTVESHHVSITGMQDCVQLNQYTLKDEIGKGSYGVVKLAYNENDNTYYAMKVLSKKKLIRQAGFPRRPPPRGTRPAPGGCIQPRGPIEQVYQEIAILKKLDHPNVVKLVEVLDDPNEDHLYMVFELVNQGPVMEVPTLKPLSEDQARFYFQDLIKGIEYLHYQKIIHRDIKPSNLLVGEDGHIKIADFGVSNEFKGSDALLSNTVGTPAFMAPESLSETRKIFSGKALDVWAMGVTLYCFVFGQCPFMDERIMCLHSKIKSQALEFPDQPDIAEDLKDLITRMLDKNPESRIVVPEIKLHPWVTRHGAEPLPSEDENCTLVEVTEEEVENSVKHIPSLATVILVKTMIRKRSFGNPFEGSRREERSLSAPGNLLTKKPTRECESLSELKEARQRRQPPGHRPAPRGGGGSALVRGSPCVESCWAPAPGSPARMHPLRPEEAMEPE
Assay [4] addresses Cyclin-dependent kinase 6 (Homo sapiens) (UniProt Q00534). Description: Inhibition of human recombinant CDK6 at 15 nM in presence of ATP by radiometric assay relative to control.
Assay [5] concerns the target T1, Serine/threonine-protein kinase NLK (Homo sapiens) (UniProt Q9UBE8).
T1 sequence (whole entry): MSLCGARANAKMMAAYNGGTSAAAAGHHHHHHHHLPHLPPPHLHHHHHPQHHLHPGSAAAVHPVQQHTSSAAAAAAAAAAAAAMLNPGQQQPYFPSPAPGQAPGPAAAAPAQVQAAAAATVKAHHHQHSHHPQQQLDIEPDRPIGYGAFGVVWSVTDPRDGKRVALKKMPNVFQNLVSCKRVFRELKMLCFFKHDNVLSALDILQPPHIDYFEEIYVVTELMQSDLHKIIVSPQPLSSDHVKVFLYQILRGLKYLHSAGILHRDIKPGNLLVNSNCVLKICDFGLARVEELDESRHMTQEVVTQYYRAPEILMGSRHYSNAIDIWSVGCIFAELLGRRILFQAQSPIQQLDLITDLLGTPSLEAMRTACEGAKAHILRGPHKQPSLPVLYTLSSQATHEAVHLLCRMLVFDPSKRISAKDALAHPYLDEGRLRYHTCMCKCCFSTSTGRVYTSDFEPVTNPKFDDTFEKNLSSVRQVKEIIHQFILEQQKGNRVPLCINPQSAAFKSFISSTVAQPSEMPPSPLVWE
Description: Inhibition of human recombinant NLK at 15 nM in presence of ATP by radiometric assay relative to control.

For assay [6], the target named is T2, MAPK/MAK/MRK overlapping kinase (Homo sapiens) (UniProt Q9UQ07).
T2 sequence (whole entry): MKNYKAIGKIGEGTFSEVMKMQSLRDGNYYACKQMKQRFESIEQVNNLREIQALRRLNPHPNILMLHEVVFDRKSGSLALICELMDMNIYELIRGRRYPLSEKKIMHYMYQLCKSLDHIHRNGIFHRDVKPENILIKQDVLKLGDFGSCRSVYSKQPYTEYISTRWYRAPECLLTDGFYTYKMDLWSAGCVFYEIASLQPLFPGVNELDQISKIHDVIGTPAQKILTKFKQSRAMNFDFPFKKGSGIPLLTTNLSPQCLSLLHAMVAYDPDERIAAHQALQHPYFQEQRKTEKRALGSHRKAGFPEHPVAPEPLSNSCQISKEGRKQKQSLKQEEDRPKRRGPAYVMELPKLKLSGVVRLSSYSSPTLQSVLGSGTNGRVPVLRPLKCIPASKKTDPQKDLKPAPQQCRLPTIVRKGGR
The assay is described as follows: Inhibition of human recombinant MOK at 40 nM in presence of ATP by radiometric assay relative to control.

Assay [7] has as its target Serine/threonine-protein kinase D2 (Homo sapiens) (UniProt Q9BZL6). The assay is described as follows: Inhibition of human recombinant PKD2 at 40 nM in presence of ATP by radiometric assay relative to control.
Assay [8] deals with RAF proto-oncogene serine/threonine-protein kinase (Homo sapiens) (UniProt P04049). Description: Inhibition of human recombinant RAF1 at 40 nM related to control ULK1.
RAF proto-oncogene serine/threonine-protein kinase (Homo sapiens), sequence (P04049 whole entry): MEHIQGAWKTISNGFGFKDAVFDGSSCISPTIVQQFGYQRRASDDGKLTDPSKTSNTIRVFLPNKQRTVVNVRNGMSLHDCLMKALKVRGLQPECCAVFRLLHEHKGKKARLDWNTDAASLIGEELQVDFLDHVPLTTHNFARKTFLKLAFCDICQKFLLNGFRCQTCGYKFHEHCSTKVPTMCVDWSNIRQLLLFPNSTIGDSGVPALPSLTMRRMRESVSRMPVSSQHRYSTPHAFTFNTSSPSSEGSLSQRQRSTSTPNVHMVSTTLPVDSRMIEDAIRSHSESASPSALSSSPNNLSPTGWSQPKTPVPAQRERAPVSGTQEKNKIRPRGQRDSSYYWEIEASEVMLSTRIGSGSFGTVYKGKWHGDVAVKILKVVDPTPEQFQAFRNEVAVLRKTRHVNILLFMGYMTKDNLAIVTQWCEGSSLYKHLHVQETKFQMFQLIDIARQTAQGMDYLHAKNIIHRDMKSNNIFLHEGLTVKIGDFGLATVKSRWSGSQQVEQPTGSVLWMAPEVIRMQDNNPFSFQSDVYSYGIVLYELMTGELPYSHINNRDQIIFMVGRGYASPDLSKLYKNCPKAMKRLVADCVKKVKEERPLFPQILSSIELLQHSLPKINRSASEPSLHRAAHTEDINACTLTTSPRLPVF
Assay [9] concerns the target MAP kinase-interacting serine/threonine-protein kinase 2 (Homo sapiens, UniProt Q9HBH9). The assay is described as follows: Inhibition of human recombinant MNK2.
Assay [10] has as its target Interferon-induced, double-stranded RNA-activated protein kinase (Homo sapiens) (UniProt P19525). The assay is described as follows: Inhibition of human recombinant PKR at 500 nM related to control ULK1.
Assay [11] has as its target T3, Serine/threonine-protein kinase tousled-like 1 (Homo sapiens) (UniProt Q9UKI8).
T3 sequence (whole entry): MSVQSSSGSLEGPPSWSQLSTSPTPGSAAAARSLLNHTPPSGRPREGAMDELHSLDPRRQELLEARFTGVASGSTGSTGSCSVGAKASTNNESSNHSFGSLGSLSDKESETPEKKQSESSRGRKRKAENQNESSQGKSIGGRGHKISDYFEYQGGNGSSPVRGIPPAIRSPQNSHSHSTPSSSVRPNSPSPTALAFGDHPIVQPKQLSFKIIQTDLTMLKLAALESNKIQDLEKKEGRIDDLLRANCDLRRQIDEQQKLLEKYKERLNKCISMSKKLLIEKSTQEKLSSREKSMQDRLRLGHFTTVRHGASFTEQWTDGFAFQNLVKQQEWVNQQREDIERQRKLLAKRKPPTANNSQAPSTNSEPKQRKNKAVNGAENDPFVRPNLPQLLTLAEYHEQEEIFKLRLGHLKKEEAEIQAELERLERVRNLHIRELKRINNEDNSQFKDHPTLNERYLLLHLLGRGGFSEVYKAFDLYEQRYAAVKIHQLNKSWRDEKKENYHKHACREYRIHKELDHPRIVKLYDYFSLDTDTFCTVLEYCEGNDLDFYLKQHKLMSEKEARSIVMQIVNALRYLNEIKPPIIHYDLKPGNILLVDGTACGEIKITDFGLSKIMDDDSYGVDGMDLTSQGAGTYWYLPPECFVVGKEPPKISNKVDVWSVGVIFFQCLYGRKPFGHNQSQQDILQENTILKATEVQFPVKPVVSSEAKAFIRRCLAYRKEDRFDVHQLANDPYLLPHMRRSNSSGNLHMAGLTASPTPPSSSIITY
Description: Inhibition of human recombinant TLK1 at 500 nM in presence of ATP by radiometric assay relative to control.

Assay [12] concerns the target T4, TGF-beta receptor type-1 (Homo sapiens) (UniProt P36897).
T4 sequence (whole entry): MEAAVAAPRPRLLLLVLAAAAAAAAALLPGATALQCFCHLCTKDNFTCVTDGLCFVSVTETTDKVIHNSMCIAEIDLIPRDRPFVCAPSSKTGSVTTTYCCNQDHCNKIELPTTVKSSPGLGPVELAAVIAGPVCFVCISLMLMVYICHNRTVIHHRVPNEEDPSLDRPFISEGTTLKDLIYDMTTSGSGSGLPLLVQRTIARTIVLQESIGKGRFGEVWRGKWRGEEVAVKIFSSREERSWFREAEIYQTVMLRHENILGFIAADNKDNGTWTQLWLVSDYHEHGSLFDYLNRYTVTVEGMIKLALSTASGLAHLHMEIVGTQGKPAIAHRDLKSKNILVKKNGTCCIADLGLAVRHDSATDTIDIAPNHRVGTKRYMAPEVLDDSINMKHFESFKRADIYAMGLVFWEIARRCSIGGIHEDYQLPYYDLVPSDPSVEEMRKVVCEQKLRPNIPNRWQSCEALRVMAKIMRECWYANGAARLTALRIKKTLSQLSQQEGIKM
The assay is described as follows: Inhibition of human recombinant TGFbR1 at 500 nM in presence of ATP by radiometric assay relative to control.

G protein-coupled receptor kinase 6 (Homo sapiens), sequence (P43250 whole entry, looked up, canonical isoform): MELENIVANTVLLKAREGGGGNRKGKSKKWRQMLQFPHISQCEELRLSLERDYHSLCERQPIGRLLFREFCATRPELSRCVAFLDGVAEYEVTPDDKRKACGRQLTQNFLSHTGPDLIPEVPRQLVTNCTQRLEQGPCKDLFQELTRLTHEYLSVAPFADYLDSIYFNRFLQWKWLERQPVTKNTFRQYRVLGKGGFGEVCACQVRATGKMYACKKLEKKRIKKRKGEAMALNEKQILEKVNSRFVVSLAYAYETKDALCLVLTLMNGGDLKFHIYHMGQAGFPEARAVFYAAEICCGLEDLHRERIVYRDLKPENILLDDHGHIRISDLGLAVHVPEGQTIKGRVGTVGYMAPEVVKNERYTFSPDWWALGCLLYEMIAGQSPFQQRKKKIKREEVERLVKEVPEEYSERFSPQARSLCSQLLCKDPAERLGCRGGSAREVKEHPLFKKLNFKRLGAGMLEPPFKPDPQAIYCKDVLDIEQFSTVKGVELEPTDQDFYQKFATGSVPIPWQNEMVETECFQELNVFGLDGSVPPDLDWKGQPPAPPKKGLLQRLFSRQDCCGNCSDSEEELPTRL
Cyclin-dependent kinase 6 (Homo sapiens), sequence (Q00534 whole entry): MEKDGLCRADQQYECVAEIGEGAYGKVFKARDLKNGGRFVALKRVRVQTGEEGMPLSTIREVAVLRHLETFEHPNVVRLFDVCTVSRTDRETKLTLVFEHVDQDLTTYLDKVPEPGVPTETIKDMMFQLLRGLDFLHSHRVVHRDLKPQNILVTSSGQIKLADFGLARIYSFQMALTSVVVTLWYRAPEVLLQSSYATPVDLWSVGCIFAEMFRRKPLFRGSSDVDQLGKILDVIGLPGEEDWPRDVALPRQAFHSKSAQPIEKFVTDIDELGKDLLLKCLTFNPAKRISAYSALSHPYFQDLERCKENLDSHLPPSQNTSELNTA
Serine/threonine-protein kinase D2 (Homo sapiens), sequence (Q9BZL6 whole entry, looked up): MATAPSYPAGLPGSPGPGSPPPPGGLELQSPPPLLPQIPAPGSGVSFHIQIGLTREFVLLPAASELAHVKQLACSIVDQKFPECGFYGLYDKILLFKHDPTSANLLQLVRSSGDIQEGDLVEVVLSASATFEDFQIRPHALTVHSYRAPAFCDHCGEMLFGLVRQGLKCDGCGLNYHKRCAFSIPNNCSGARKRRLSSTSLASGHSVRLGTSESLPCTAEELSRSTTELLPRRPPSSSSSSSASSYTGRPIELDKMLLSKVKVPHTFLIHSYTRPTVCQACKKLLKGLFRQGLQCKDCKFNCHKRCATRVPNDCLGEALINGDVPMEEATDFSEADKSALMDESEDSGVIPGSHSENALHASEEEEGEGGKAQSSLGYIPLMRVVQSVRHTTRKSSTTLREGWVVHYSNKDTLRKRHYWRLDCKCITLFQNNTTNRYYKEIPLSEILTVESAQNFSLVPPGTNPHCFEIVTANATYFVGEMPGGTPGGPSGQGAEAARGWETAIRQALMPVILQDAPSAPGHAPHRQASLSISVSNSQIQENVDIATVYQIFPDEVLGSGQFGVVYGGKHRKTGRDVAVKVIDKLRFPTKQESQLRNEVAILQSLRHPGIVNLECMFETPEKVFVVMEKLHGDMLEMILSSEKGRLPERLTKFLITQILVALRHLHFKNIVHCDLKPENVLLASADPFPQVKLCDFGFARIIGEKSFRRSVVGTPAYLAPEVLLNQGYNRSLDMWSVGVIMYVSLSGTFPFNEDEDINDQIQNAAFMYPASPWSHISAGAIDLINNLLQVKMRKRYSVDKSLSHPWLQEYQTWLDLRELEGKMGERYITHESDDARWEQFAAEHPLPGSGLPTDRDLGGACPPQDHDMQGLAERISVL
Interferon-induced, double-stranded RNA-activated protein kinase (Homo sapiens), sequence (P19525 whole entry): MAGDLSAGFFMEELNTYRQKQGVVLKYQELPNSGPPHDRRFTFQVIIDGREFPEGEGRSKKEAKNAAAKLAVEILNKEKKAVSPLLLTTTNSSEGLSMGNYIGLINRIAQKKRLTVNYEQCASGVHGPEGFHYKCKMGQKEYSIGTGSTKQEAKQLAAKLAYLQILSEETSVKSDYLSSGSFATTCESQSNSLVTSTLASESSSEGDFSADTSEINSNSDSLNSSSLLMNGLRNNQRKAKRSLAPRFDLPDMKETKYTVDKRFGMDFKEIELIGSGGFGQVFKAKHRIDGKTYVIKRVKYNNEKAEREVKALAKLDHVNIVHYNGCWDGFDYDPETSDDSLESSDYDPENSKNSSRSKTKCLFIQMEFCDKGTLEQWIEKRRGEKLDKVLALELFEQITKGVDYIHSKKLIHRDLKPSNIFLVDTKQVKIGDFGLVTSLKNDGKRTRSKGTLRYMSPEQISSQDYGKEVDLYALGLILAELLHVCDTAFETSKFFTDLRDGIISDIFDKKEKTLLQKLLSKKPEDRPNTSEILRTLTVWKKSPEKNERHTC
MAP kinase-interacting serine/threonine-protein kinase 2, sequence (Q9HBH9 whole entry): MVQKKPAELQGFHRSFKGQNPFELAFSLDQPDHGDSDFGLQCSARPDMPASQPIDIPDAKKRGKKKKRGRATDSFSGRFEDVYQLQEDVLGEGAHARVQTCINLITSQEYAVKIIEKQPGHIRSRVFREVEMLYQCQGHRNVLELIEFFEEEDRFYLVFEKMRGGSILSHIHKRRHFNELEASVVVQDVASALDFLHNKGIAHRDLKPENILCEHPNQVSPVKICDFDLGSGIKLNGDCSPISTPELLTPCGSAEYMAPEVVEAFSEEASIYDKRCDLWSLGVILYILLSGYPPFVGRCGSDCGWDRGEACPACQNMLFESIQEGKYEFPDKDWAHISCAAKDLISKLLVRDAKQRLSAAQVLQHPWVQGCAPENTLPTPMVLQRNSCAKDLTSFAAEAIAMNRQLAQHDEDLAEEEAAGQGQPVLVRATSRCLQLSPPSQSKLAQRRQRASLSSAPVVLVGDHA

In the case of `CC(C)[C@H](NC(=O)c1cc(-c2cnn3cc(-c4ccc(OCCN5CCCCC5)cc4)cnc23)cs1)C(F)(F)F`, the inhibition was determined as 0% in [1], 8% in [4] and 9% in assay [5]. For the same compound, the fold change (FC) amounted to 0.03 in assay [2] and 0.01 in assay [3].

Take `O=C(N[C@@H](C1CC1)C(F)(F)F)c1cc(-c2cnn3cc(-c4ccc(F)cc4)cnc23)cs1`: the inhibition in [6] amounted to 0%; in assay [7], 6%. Besides, in assay [8], the fold change (FC) was found to be 0.01. Besides, the half-maximal inhibitory concentration (IC50) in assay [9] came to 22 nM.

With `CNC(=O)c1ccccc1Oc1nc(Nc2cc(OC)c(OC)c(OC)c2)ncc1Br`, the fold change (FC) in assay [10] worked out at 0.05. Also, the inhibition in assay [11] and in assay [12] was 0% in each case.
